Like-named read-outs stand apart in the source and are kept apart here.
Assays:
[1] = test system: nonresistant strain of bed bug; conditions: for Residual Effect (% Knockdown & Mortality/hrs) 24: 24 hrs; for Residual Effect (% Knockdown & Mortality/hrs) 48: 48 hrs; for Residual Effect (% Knockdown & Mortality/hrs) 72: 72 hrs
Experimental: The compositions and individual components thereof were prepared to provide the appropriate rates of application for combinations of acetamiprid, chlorfenapyr, and rosemary oil, as well as acetamiprid, chlorfenapyr, and rosemary oil paired and alone. The insecticide formula(s) were aliquoted (100 μL) into a glass petri dish (100 mm). Filter paper was placed on top of the solution. Ten adult bed bugs were then placed on top of the filter paper and morbidity and moribundity (knockdown) and mortality was recorded at 5 minutes for each treatment combination and the control. After 2 hours, bed bugs were removed from the treated surface and placed in a holding chamber. Bed bug morbidity, moribund, and mortality was recorded every 24 hours for 7 days.
Dash indicates no knockdown or mortality during exposure.

[2] = test system: adult bed bugs resistant strain (UMC) colony; assay: Contact lethal time of pyrethroids and rosemary oil on treated filter paper, Example 4; format: in vivo, bed bug; conditions: rate 0.01 % by weight
Experimental: The control is 100 μL […]. Filter paper was then placed on top of the solution.

Compound | 2 hour exposure (min) LT50 ([1]; rate 0.01 % by weight) | 2 hour exposure (min) LT99 ([1]; rate 0.01 % by weight) | Residual Effect (% Knockdown & Mortality/hrs) 24 ([1]; rate 0.01 % by weight) | Residual Effect (% Knockdown & Mortality/hrs) 48 ([1]; rate 0.01 % by weight) | Residual Effect (% Knockdown & Mortality/hrs) 72 ([1]; rate 0.01 % by weight) | 2 hour exposure (min) LT50 ([1]; rate 0.1 % by weight) | 2 hour exposure (min) LT99 ([1]; rate 0.1 % by weight) | Residual Effect (% Knockdown & Mortality/hrs) 24 ([1]; rate 0.1 % by weight) | Residual Effect (% Knockdown & Mortality/hrs) 48 ([1]; rate 0.1 % by weight) | Residual Effect (% Knockdown & Mortality/hrs) 72 ([1]; rate 0.1 % by weight) | 2 hour exposure (min) LT50 ([1]; rate 1.0 % by weight) | 2 hour exposure (min) LT99 ([1]; rate 1.0 % by weight) | Residual Effect (% Knockdown & Mortality/hrs) 24 ([1]; rate 1.0 % by weight) | Residual Effect (% Knockdown & Mortality/hrs) 48 ([1]; rate 1.0 % by weight) | Residual Effect (% Knockdown & Mortality/hrs) 72 ([1]; rate 1.0 % by weight) | LT50 [2] | LT95 [2]
CC(=NC#N)N(C)Cc1ccc(Cl)nc1 [Acetamiprid, N-[(6-chloro-3-pyridyl)methyl]-N′-cyano-N-methyl-acetamidine] | 39.3 min | 38038.1 min | 10.0% | 20.0% | 20.0% | 22.4 min | 12565.9 min | 20.0% | 10.0% | 10.0% | 7.0 min | 510.8 min | 40.0% | 30.0% | 50.0% |  | 
CCOCn1c(-c2ccc(Cl)cc2)c(C#N)c(Br)c1C(F)(F)F [Chlorfenapyr, 4-Bromo-2-(4-chlorophenyl)-1-ethoxymethyl-5-trifluoromethyl-1H-pyrrole-3-carbonitrile] |  |  | 0.0% | 0.0% | 0.0% |  |  | 30.0% | 50.0% | 70.0% |  |  | 40.0% | 80.0% | 100.0% |  | 
CC1(C)C(C=C(Cl)Cl)C1C(=O)OCc1cccc(Oc2ccccc2)c1 (stereo not shown) [Permethrin, permethrin] |  |  |  |  |  |  |  |  |  |  |  |  |  |  |  | 20.78 min | 490.348 min
CC(C)=CC1C(C(=O)OCN2C(=O)C3=C(CCCC3)C2=O)C1(C)C (stereo not shown) [Tetramethrin, tetramethrin] |  |  |  |  |  |  |  |  |  |  |  |  |  |  |  | 14000 min | 6.5e+06 min

Source: patent US9743676B2, “Pesticidal compositions comprising a solid insecticide and an essential oil” (AirRx Antimicrobial Sciences Inc., priority 2015, dated 2017)
